Laboratory results: patent US8071290B2, “Hypermethylation of GATA-4 and GATA-5 transcription factor genes in cancer” (Johns Hopkins University School of Medicine, priority 2003, dated 2011)
Marks after values point to notes of the source that are not given here.

How the values were obtained:
Format in all cases: cell-based, human
[1] = test system: SW480 colon cancer cell line; assay: DAC treatment, gene expression by RT-PCR in SW480; parameters: key: −: Undetectable level; +: detectable level of expression, by RT-PCR; ++: increased expression level from +basal level; conditions: 5 pM DAC daily for 48 hr
Procedure: (§1) The CRC and Az521 cell lines were grown in DMEM, MEM or McCoy's medium supplemented with 10% fetal bovine serum, penicillin and streptomycin. For demethylation studies, cells were treated daily with […] 5-aza-2′deoxycytidine (DAC; Sigma Chemical Co.; St. Louis Mo.) for 48 hr (41). Az521 and HCT116 cells also were treated with the histone deacetylase inhibitor, TSA (Wako), alone, or with a combination of DAC plus TSA (41; 6). Total RNA was isolated using the TRIZOL reagent (Invitrogen Corp.; Carlsbad Calif.).
(§2) For RT-PCR, 2 μg of total RNA was reverse transcribed using the SUPERSCRIPT reverse transcription kit (Invitrogen); all genes were amplified with multiple cycle numbers (28-35 cycles) for obtaining semi-quantitative differences in their expression levels. Primer pairs for GATA-1 to GATA-6 and for the GATA-5 target genes are shown in Table 2 (see, also, Bai et al., Mol. Carcinog. 28:184-188, 2000, which is incorporated herein by reference). Annealing was performed at the indicated temperatures, and PCR was performed for the indicated number of cycles (Table 2, below). PCR conditions were as follows: first denature, 95° C., 5 min; denature, 95° C., 1 min; anneal, temperature shown in Table 2 (° C.), 1 min; extension, 72° C., 1 min; final extension, 72° C., 10 min.
(§3) GATA-4, GATA-5and GATA-6 expression was examined in gastrointestinal cancer cell lines. GATA-4, GATA-5 and GATA-6 expression levels were examined by RT-PCR in seven cancer cell lines (colon cancer cell lines RKO, DLD1, HCT116, HT29, LoVo, and SW480; and gastric cancer cell line AZ521) with or without (mock) treatment with 5′-aza-2′-deoxycytidine (DAC) and in normal colonic mucosa (NC) and peripheral blood lymphocytes (PBL). GAPDH expression was used for an internal loading control for the RT-PCR. Gastric cancer cells, AZ521, were treated with low dose DAC alone, TSA alone, or a combination of these two drugs (A/T), or were mock treated, and examined by RT-PCR. GATA-4 and GATA-5 expression were examined in wild type (WT) HCT116 colon cancer cells, and two clones each of these cells in which both alleles of DNA methyltransferase 1 (DNMTI-KO), DNMT 3b (DNMT3b-KO), or both DNMTs were knocked out (21). PCR products recognizing unmethylated and methylated CpG sites were analyzed in 2.5% agarose gels stained by ethidium bromide.

[2] = test system: HCT116 colon cancer cell line; assay: DAC treatment, gene expression by RT-PCR in HCT116; parameters: key to GATA-5 expression (Exp, A = DAC treatment) / GATA-6 expression (Exp, A = DAC treatment) / TFF1 expression (Exp, A = DAC treatment) / TFF2 expression (Exp, A = DAC treatment) / TFF3 expression (Exp, A = DAC treatment) / Inhibin α expression (Exp, A = DAC treatment) / Dab2 expression (Exp, A = DAC treatment) / GATA-4 expression (Exp, A = DAC treatment): −: Undetectable level; +: detectable level of expression, by RT-PCR; ++: increased expression level from +basal level
Procedure: as §1, §2, §3

[3] = test system: RKO colon cancer cell line; assay: DAC treatment, gene expression by RT-PCR in RKO; parameters: key to GATA-5 expression (Exp, A = DAC treatment) / GATA-6 expression (Exp, A = DAC treatment) / TFF1 expression (Exp, A = DAC treatment) / TFF2 expression (Exp, A = DAC treatment) / TFF3 expression (Exp, A = DAC treatment) / Inhibin α expression (Exp, A = DAC treatment) / Dab2 expression (Exp, A = DAC treatment) / GATA-4 expression (Exp, A = DAC treatment): −: Undetectable level; +: detectable level of expression, by RT-PCR; ++: increased expression level from +basal level
Procedure: as §1, §2, §3

[4] = test system: HT29 colon cancer cell line; assay: DAC treatment, gene expression by RT-PCR in HT29; parameters: key: −: Undetectable level; +: detectable level of expression, by RT-PCR; ++: increased expression level from +basal level; conditions: 5 pM DAC daily for 48 hr
Procedure: as §1, §2, §3

[5] = test system: AZ521 gastric cancer cell line; assay: DAC treatment, gene expression by RT-PCR in AZ521; parameters: key to GATA-4 expression (Exp, A = DAC treatment) / GATA-5 expression (Exp, A = DAC treatment) / GATA-6 expression (Exp, A = DAC treatment) / TFF1 expression (Exp, A = DAC treatment) / TFF2 expression (Exp, A = DAC treatment) / TFF3 expression (Exp, A = DAC treatment) / Inhibin α expression (Exp, A = DAC treatment) / Dab2 expression (Exp, A = DAC treatment): −: Undetectable level; +: detectable level of expression, by RT-PCR; ++: increased expression level from +basal level
Procedure: as §1, §2, §3

[6] = test system: DLD1 colon cancer cell line; assay: DAC treatment, gene expression by RT-PCR in DLD1; parameters: key: −: Undetectable level; +: detectable level of expression, by RT-PCR; ++: increased expression level from +basal level; conditions: 5 pM DAC daily for 48 hr
Procedure: as §1, §2, §3

[7] = test system: colon cancer cell lines RKO, DLD1, HCT116, HT29, LoVo, and SW480; and gastric cancer cell line AZ521; assay: DAC treatment of the seven cancer cell lines, RT-PCR
Procedure: as §1, §2
as §3, with “GATA-4 and GATA-5 expression were examined in wild type (WT) HCT116 colon cancer cells, and two clones each of these cells in which both alleles of DNA methyltransferase 1 (DNMTI-KO), DNMT 3b (DNMT3b-KO), or both DNMTs were knocked out (21).” left out

[8] = test system: LoVo colon cancer cell line; assay: DAC treatment, gene expression by RT-PCR in LoVo; parameters: key: −: Undetectable level; +: detectable level of expression, by RT-PCR; ++: increased expression level from +basal level; conditions: 5 pM DAC daily for 48 hr
Procedure: as §1, §2, §3

[9] = test system: Gastric cancer cells, AZ521; assay: TSA alone or low dose DAC plus TSA, RT-PCR of GATA-4 and GATA-5
Procedure: as §1
as §2, with “PCR conditions were as follows: first denature, 95° C., 5 min; denature, 95° C., 1 min; anneal, temperature shown in Table 2 (° C.), 1 min; extension, 72° C., 1 min; final extension, 72° C., 10 min.” left out
GATA-4, GATA-5and GATA-6 expression was examined in gastrointestinal cancer cell lines. […] PCR products recognizing unmethylated and methylated CpG sites were analyzed in 2.5% agarose gels stained by ethidium bromide.

[10] = HCT116, 5 pM DAC daily for 48 hr, RT-PCR
[11] = 5 pM DAC daily for 48 hr, RT-PCR
[12] = AZ521, 5 pM DAC daily for 48 hr, RT-PCR

Compound: Nc1ncn([C@H]2C[C@H](O)[C@@H](CO)O2)c(=O)n1 [DAC, 5-aza-2′-deoxycytidine]
- Dab2 expression (Exp, A = DAC treatment) [1]: +
- GATA-4 expression (Exp, A = DAC treatment) [1]: +
- GATA-5 expression (Exp, A = DAC treatment) [1]: +
- GATA-6 expression (Exp, A = DAC treatment) [1]: +
- Inhibin α expression (Exp, A = DAC treatment) [1]: ++
- TFF1 expression (Exp, A = DAC treatment) [1]: +
- TFF2 expression (Exp, A = DAC treatment) [1]: +
- TFF3 expression (Exp, A = DAC treatment) [1]: +
- TFF2 activation by DAC ([2]; HCT116, TFF2 promoter present): readily activated
- Dab2 expression (Exp, A = DAC treatment) [2, 10]: +
- GATA-4 expression (Exp, A = DAC treatment) [2, 10]: +
- GATA-5 expression (Exp, A = DAC treatment) [2, 10]: +
- GATA-6 expression (Exp, A = DAC treatment) [2, 10]: +
- Inhibin α expression (Exp, A = DAC treatment) [2, 10]: +
- TFF1 expression (Exp, A = DAC treatment) [2, 10]: +
- TFF2 expression (Exp, A = DAC treatment) [2, 10]: +
- TFF3 expression (Exp, A = DAC treatment) [2, 10]: +
- TFF2 re-expression after DAC treatment [3]: did not re-express
- Dab2 expression (Exp, A = DAC treatment) [3, 11]: +
- GATA-4 expression (Exp, A = DAC treatment) [3, 11]: +
- GATA-5 expression (Exp, A = DAC treatment) [3, 11]: +
- GATA-6 expression (Exp, A = DAC treatment) [3, 11]: +
- Inhibin α expression (Exp, A = DAC treatment) [3, 11]: +
- TFF1 expression (Exp, A = DAC treatment) [3, 11]: +
- TFF2 expression (Exp, A = DAC treatment) [3, 11]: −
- TFF3 expression (Exp, A = DAC treatment) [3, 11]: +
- Dab2 reactivation following DAC treatment ([3]; gene basally silent): reactivated
- Dab2 expression (Exp, A = DAC treatment) [4]: +
- GATA-4 expression (Exp, A = DAC treatment) [4]: +
- GATA-5 expression (Exp, A = DAC treatment) [4]: +
- GATA-6 expression (Exp, A = DAC treatment) [4]: +
- TFF1 expression (Exp, A = DAC treatment) [4]: ++
- TFF2 expression (Exp, A = DAC treatment) [4]: +
- TFF3 expression (Exp, A = DAC treatment) [4]: +
- Dab2 expression (Exp, A = DAC treatment) [5, 12]: +
- GATA-4 expression (Exp, A = DAC treatment) [5, 12]: +
- GATA-5 expression (Exp, A = DAC treatment) [5, 12]: +
- GATA-6 expression (Exp, A = DAC treatment) [5, 12]: +
- Inhibin α expression (Exp, A = DAC treatment) [5, 12]: ++
- TFF1 expression (Exp, A = DAC treatment) [5, 12]: +
- TFF2 expression (Exp, A = DAC treatment) [5, 12]: −
- TFF3 expression (Exp, A = DAC treatment) [5, 12]: +
- TFF2 re-expression after DAC treatment ([5]; Az521): did not re-express
- Dab2 expression (Exp, A = DAC treatment) [6]: +
- GATA-4 expression (Exp, A = DAC treatment) [6]: +
- GATA-5 expression (Exp, A = DAC treatment) [6]: +
- GATA-6 expression (Exp, A = DAC treatment) [6]: +
- Inhibin α expression (Exp, A = DAC treatment) [6]: +
- TFF1 expression (Exp, A = DAC treatment) [6]: ++
- TFF2 expression (Exp, A = DAC treatment) [6]: +
- TFF3 expression (Exp, A = DAC treatment) [6]: +
- re-expression of each basally silent GATA gene, except GATA-1 ([7]; DAC treatment, RT-PCR): re-expressed
- low basal expression of TFF1, TFF3, inhibin α after DAC ([7]; DAC, in many instances): further increased
- activation of each downstream gene (TFF1, TFF2, TFF3, inhibin α, Dab2) ([7]; DAC, virtually every cell line in which the gene lacked basal expression): activated
- Dab2 expression (Exp, A = DAC treatment) [8]: +
- GATA-4 expression (Exp, A = DAC treatment) [8]: ++^4)
- GATA-5 expression (Exp, A = DAC treatment) [8]: ++
- GATA-6 expression (Exp, A = DAC treatment) [8]: +
- Inhibin α expression (Exp, A = DAC treatment) [8]: ++
- TFF1 expression (Exp, A = DAC treatment) [8]: ++
- TFF2 expression (Exp, A = DAC treatment) [8]: +
- TFF3 expression (Exp, A = DAC treatment) [8]: ++

Compound: CC(/C=C/C(=O)NO)=C\[C@@H](C)C(=O)c1ccc(N(C)C)cc1 [TSA]
- reactivation of the silenced GATA-4 and GATA-5 genes ([9]; TSA alone): failed to reactivate
- reactivating expression of the silenced GATA-4 and GATA-5 genes ([9]; TSA applied with a low dose of DAC): synergistic
